The source of these data is the NIST ThermoML archive (doi:10.1016/j.tca.2014.05.033).

Each structure is given as a SMILES string. Values joined by “and” are separate entries in the source; they are usually repeats but may differ in a detail not shown here. Identical values can stand only once. Numbers after ± are expanded uncertainties.

Data set [1] in a line: molar enthalpy of vaporization or sublimation. The note with it: 298.15 K; Crystal; DSC.
Data set [2] is described as follows: refractive index (Na D-line) (dimensionless); mn = molality of the nth substance listed, in mol/kg. The note with it: 298.15 K, 101 kPa, Liquid, Standard Abbe refractometry.
A short description of data set [3]: mn = molality of the nth substance listed, in mol/kg. The note with it: 298.15 K, 101 kPa, Liquid, Vibrating tube method.

As to `c1ccc(-c2c(-c3ccccc3)c(-c3ccccc3)c3ccccc3c2-c2ccccc2)cc1` [1,2,3,4-tetraphenylnaphthalene], the molar enthalpy in data set [1] was 39.4 ± 1.48 kcal/mol.

On to `c1ccc(-c2c(-c3ccccc3)c(-c3ccccc3)c3ccccc3c2-c2ccccc2)cc1` [1,2,3,4-tetraphenylnaphthalene] + c1ccccc1, for which the refractive index in data set [2] (m1 = 0.0008) was 1.49737 ± 0.00031; in data set [2] (m1 = 0.0011), 1.4974 ± 0.00031; in data set [2] (m1 = 0.0017) it was 1.49744 ± 0.00031 and 1.49745 ± 0.00031; in data set [2] (m1 = 0.0022), 1.49748 ± 0.00031. In addition, the mass density in data set [3] (m1 = 8e-05) is 873.38 ± 1.3 kg/m3; in data set [3] (m1 = 0.00011), 873.424 ± 1.2 kg/m3; in data set [3] (m1 = 0.00017), 873.488 ± 1.2 kg/m3 and 873.494 ± 1.2 kg/m3; in data set [3] (m1 = 0.00022), 873.551 ± 1.3 kg/m3.

Turning to `c1ccc(-c2cccc(-c3ccccc3)c2-c2ccccc2)cc1` [1,2,3-triphenylbenzene], the molar enthalpy in data set [1] is 33.1 ± 1 kcal/mol.

Turning to `c1ccc(-c2cccc(-c3ccccc3)c2-c2ccccc2)cc1` [1,2,3-triphenylbenzene] + c1ccccc1, the refractive index was found to be 1.49797 ± 0.00031 in data set [2] (m1 = 0.00038), 1.49809 ± 0.00031 in data set [2] (m1 = 0.00061), 1.49814 ± 0.00031 in data set [2] (m1 = 0.0007) and 1.49819 ± 0.00031 in data set [2] (m1 = 0.0008). The mass density in data set [3] (m1 = 0.00038) is 873.87 ± 0.78 kg/m3; in data set [3] (m1 = 0.00061) it was 874.054 ± 0.83 kg/m3; in data set [3] (m1 = 0.0007), 874.135 ± 0.78 kg/m3; in data set [3] (m1 = 0.0008), 874.201 ± 0.67 kg/m3.

For the compound `C(#Cc1ccccc1)c1ccccc1` [1,2-diphenylethyne], the molar enthalpy in data set [1] is 22 ± 1.08 kcal/mol.

With `C(#Cc1ccccc1)c1ccccc1` [1,2-diphenylethyne] + c1ccccc1, the refractive index is listed as 1.49738 ± 0.00031 in data set [2] (m1 = 0.00019), 1.49743 ± 0.00031 in data set [2] (m1 = 0.00036), 1.49747 ± 0.00031 in data set [2] (m1 = 0.00042) and 1.49756 ± 0.00031 in data set [2] (m1 = 0.00079). Besides, the mass density in data set [3] (m1 = 0.00019) was found to be 873.334 ± 0.34 kg/m3; in data set [3] (m1 = 0.00036), 873.403 ± 0.45 kg/m3; in data set [3] (m1 = 0.00042), 873.437 ± 0.58 kg/m3; in data set [3] (m1 = 0.00079), 873.534 ± 0.28 kg/m3.

Take `c1ccc(-c2c3ccccc3c(-c3ccccc3)c3c(-c4ccccc4)c4ccccc4c(-c4ccccc4)c23)cc1` [5,6,11,12-tetraphenylnaphthacene]: the molar enthalpy in data set [1] came out at 51 ± 1.31 kcal/mol.

Consider `c1ccc(-c2c3ccccc3c(-c3ccccc3)c3ccccc23)cc1` [9,10-diphenylanthracene], for which the molar enthalpy in data set [1] was determined as 36.5 ± 1.27 kcal/mol.

For the compound `c1ccc(-c2c3ccccc3c(-c3ccccc3)c3ccccc23)cc1` [9,10-diphenylanthracene] + c1ccccc1, the refractive index in data set [2] (m1 = 0.00012) amounted to 1.49761 ± 0.00031; in data set [2] (m1 = 0.00016) it was 1.49763 ± 0.00031; in data set [2] (m1 = 0.00022) it was 1.49768 ± 0.00031; in data set [2] (m1 = 0.00028), 1.49773 ± 0.00031; in data set [2] (m1 = 0.0003), 1.49776 ± 0.00031. Besides, the mass density worked out at 873.64 ± 0.84 kg/m3 in data set [3] (m1 = 0.00012); 873.666 ± 0.93 kg/m3 in data set [3] (m1 = 0.00016); 873.731 ± 1.1 kg/m3 in data set [3] (m1 = 0.00022); 873.796 ± 1.1 kg/m3 in data set [3] (m1 = 0.00028); 873.822 ± 1.3 kg/m3 in data set [3] (m1 = 0.0003).

In the case of `c1ccc(-c2c3ccccc3cc3ccccc23)cc1` [9-phenylanthracene], the molar enthalpy in data set [1] is 30 ± 0.765 kcal/mol.

As to `c1ccc(-c2c3ccccc3cc3ccccc23)cc1` [9-phenylanthracene] + c1ccccc1, the refractive index in data set [2] (m1 = 0.00011) is listed as 1.49764 ± 0.00031; in data set [2] (m1 = 0.00032) it was 1.49776 ± 0.00031; in data set [2] (m1 = 0.00038) it was 1.4978 ± 0.00031; in data set [2] (m1 = 0.0008) it was 1.49794 ± 0.00031. The mass density in data set [3] (m1 = 0.00011) is on record as 873.687 ± 0.71 kg/m3; in data set [3] (m1 = 0.00032) it was 873.837 ± 0.75 kg/m3; in data set [3] (m1 = 0.00038) it was 873.891 ± 0.91 kg/m3; in data set [3] (m1 = 0.0008) it was 874.047 ± 0.39 kg/m3.

Turning to `C(=C\c1ccccc1)/c1ccccc1` [(E)-1,2-diphenylethene], in data set [1], the molar enthalpy was found to be 24.6 ± 0.669 kcal/mol.

With `c1ccc2cc3c(ccc4ccccc43)cc2c1` [benz[a]anthracene], the molar enthalpy in data set [1] was determined as 27.8 ± 0.741 kcal/mol.

Consider `c1ccccc1` [benzene] + C(#Cc1ccccc1)c1ccccc1, for which the refractive index in data set [2] (m2 = 0) was 1.49734 ± 0.00031. Moreover, in data set [3] (m2 = 0), the mass density is 873.285 ± 0.28 kg/m3.

In the case of `c1ccccc1` [benzene] + c1ccc(-c2c3ccccc3c(-c3ccccc3)c3ccccc23)cc1, the refractive index in data set [2] (m2 = 0) is given as 1.49752 ± 0.00031. Also, the mass density in data set [3] (m2 = 0) is listed as 873.534 ± 0.89 kg/m3.

As for `c1ccccc1` [benzene] + c1ccc(-c2c3ccccc3cc3ccccc23)cc1, the refractive index in data set [2] (m2 = 0) came to 1.49758 ± 0.00031. Further, the mass density in data set [3] (m2 = 0) stood at 873.612 ± 0.69 kg/m3.

Regarding `c1ccccc1` [benzene] + c1ccc(-c2c(-c3ccccc3)c(-c3ccccc3)c3ccccc3c2-c2ccccc2)cc1, the refractive index in data set [2] (m2 = 0) is given as 1.49731 ± 0.00031. Besides, the mass density in data set [3] (m2 = 0) is 873.277 ± 1.3 kg/m3.

With `c1ccccc1` [benzene] + c1ccc(-c2cccc(-c3ccccc3)c2)cc1, the refractive index in data set [2] (m2 = 0) is recorded as 1.49772 ± 0.00031. The mass density in data set [3] (m2 = 0) is 873.483 ± 0.54 kg/m3.

Turning to `c1ccccc1` [benzene] + c1ccc(-c2cccc(-c3ccccc3)c2-c2ccccc2)cc1, in data set [2] (m2 = 0), the refractive index is 1.49778 ± 0.00031. In addition, in data set [3] (m2 = 0), the mass density stood at 873.584 ± 0.76 kg/m3.

With `c1ccc2c(c1)ccc1cc3c(ccc4ccccc43)cc12` [dibenz[a,h]anthracene], in data set [1], the molar enthalpy came out at 35.4 ± 1.12 kcal/mol.

In the case of `c1ccc2c(c1)-c1cccc3cccc-2c13` [fluoranthene], the molar enthalpy in data set [1] came to 24.1 ± 0.669 kcal/mol.

Take `c1ccc(-c2c(-c3ccccc3)c(-c3ccccc3)c(-c3ccccc3)c(-c3ccccc3)c2-c2ccccc2)cc1` [hexaphenylbenzene]: in data set [1], the molar enthalpy is 46.8 ± 1.41 kcal/mol.

Regarding `c1ccc(-c2cccc(-c3ccccc3)c2)cc1` [m-terphenyl], the molar enthalpy in data set [1] was 27.6 ± 0.621 kcal/mol.

For `c1ccc(-c2cccc(-c3ccccc3)c2)cc1` [m-terphenyl] + c1ccccc1, the refractive index is on record as 1.49966 ± 0.00031 in data set [2] (m1 = 0.00482), 1.50149 ± 0.00031 in data set [2] (m1 = 0.00941), 1.50336 ± 0.00031 in data set [2] (m1 = 0.0142) and 1.50621 ± 0.00031 in data set [2] (m1 = 0.0215). For the same compound, the mass density in data set [3] (m1 = 0.00482) was 876.044 ± 0.54 kg/m3; in data set [3] (m1 = 0.00941), 878.445 ± 0.53 kg/m3; in data set [3] (m1 = 0.0142) it was 880.914 ± 0.52 kg/m3; in data set [3] (m1 = 0.0215), 884.612 ± 0.52 kg/m3.

As for `c1ccc(-c2ccc(-c3ccccc3)cc2)cc1` [p-terphenyl], in data set [1], the molar enthalpy came to 29 ± 1 kcal/mol.

With `c1cc2ccc3cccc4ccc(c1)c2c34` [pyrene], the molar enthalpy in data set [1] amounted to 25.2 ± 0.789 kcal/mol.

For orientation: refractive index means a measure of how strongly the sample bends light. One may read the mass density as mass per unit of volume.
